Test results reported in patent US20180085371A1, “COMBINATION OF PANOBINOSTAT AND RUXOLITINIB IN THE TREATMENT OF CANCER SUCH AS A MYELOPROLIFERATIVE NEOPLASM” (Novartis AG, priority 2011, published 2018).
Read-outs that look alike come from different tables or passages of the source.

How the values were obtained:
Assay type in all cases: in vivo, mouse
Acetylated Histone H3 = assay: PD marker acetylated histone H3 by IHC in spleen and bone marrow; conditions: Compound B 8 mg/kg alone or with Compound A 60 mg/kg
Text: Briefly, the spleen was removed in total, weighed and placed on a dissection tray. The spleen was cut transverse in two halves and two equal pieces were taken from the middle parts using a scalpel. […] Baker, Medite, Switzerland). Fixative volume was at least tenfold in excess compared to tissue volume. […] After a last wash in PBS, the tissues were cut up and set with the surface of interest downwards in a universal histocassette followed by processing in a TPC 15Duo (Tissue Processing Center) for paraffinization. From each tissue paraffin block, several 3 μm thick sections were cut on a sliding or rotary microtome (Mikrom International AG, Switzerland), spread in a 45° C. water-bath, mounted on microscope slides (Polysine, VWR International, Leuven, Belgium), and air-dried in an oven at 37° C. overnight. […] Splenic architecture was evaluated as destroyed (1+) or preserved (0). Presence of myeloid, erythroid and adipocytes cells was evaluated as 0, 1+, 2+, 3+ based on cellularity. […] Whole slide automated quantitative assessment of p-STAT5-positive and -negative cell nuclei were performed using Definiens eCognition software (eCognition version XD 1.5, Definiens AG, Germany). The results were expressed as percent of positive p-STAT5 nuclei out of total nuclei.

[1] = PK analysis 2 hours post-therapy, Example A (blood and tissue levels); conditions: mean; for BM level 2 hr post-therapy: BM levels to be taken with caution
Experimental: 2 hours after last dose for Compound A;
2 hours after last dose for Compound B; • Spleen weight is recorded at sacrifice. • Samples collected and snap frozen in liquid nitrogen and then kept at −80° C. until analysis: • spleen, BM, blood and liver for PK analysis • spleen for PD marker analysis (p-STATS (Compound A) and protein acetylation (Compound B)), • sternum for PD marker analysis (p-STATS (Compound A).
(§1) Concentrations of Compound A and Compound B in plasma and tissues were determined simultaneously by an UPLC/MS-MS assay. Tissues were homogenized in an equal volume of HPLC-Water (Water for chromatography, Merck) using the Fast Prep®-24 system (M.P. Biomedicals, Irvine, Calif., USA). Following addition of 25 μl of internal standard mixture (1 μg/ml) to analytical aliquots (25 μl) of blood or tissues homogenate, the proteins were precipitated by the addition of 200 μl acetonitrile. The supernatant were transferred in a fresh vial. After evaporation to dryness the samples were re-dissolved in 60 μl acetonitrile/water (1/1 v/v). An aliquot (5 μl) of this solution was separated on a ACQUITY UPLC BEH C18 column (Waters™ 1.7 μm particle size, 2.1×50 mm) with a mobile phase consisting of a mixture of 0.1% formic acid in water (solvent A) and 0.1% formic acid in acetonitrile (solvent B). Gradient programming was used with a flow rate of 600 μl/min. After equilibration with 95% solvent A, 5 μl of sample was injected. Following a latency period of 0.25 min., the sample was eluted with a linear gradient of 5-100% solvent B over a period of 0.65 minutes followed by a 0.35 min. hold. The column was prepared for the next sample by re-equilibrating over 0.25 min. to the starting conditions. The column eluent was directly introduced into the ion source of the triple quadrupole mass spectrometer TQDTM (Waters Corporation, Milford, Mass., USA) controlled by Masslynx™ 4.1 software. Electrospray positive ionization (ESI+) multiple reaction monitoring was used for the MS/MS detection of the analyte. Precursor to product ion transition of 307.0→m/z 186.0 for Compound A was used. Simultaneously precursor to product ion transition of 350.1→m/z 142.9 for Compound B was recorded. The limit of quantification (LOQ) for both compounds was set to 9 ng/ml and 9 ng/g for plasma and tissues, respectively (CV and overall bias less than 30%). Regression analysis and further calculations were performed using QuanLynx™ 4.1 (Micromass) and Excel™ 2007 (Microsoft). Concentrations of unknown samples were back-calculated based on the peak area ratios of analyte/IS from a calibration curve constructed using calibration samples spiked in blank blood or tissue obtained from animals treated with vehicle.

[2] = Levels post therapy, Example B (UPLC/MS-MS, blood and tissues); conditions: mean, N = 9; for concentration at 2 h: Balb/c, mouse, blood, read-out: Blood level 2 hr after final dose
Experimental: as §1

[3] = treatment Compound A 60 mg/kg + Compound B 4 mg/kg
[4] = treatment Compound A 60 mg/kg + Compound B 8 mg/kg
[5] = treatment Compound A 60 mg/kg + Compound B 12 mg/kg
[6] = Combo Compound A (60 mg/kg) and B (8 mg/kg)
[7] = single agent: Comp'd B 8 mg/kg or Comp'd A 60 mg/kg

| Structure (SMILES) | Blood level 2 hr post-therapy [1, 3] [nM] | Liver level 2 hr post-therapy [1, 3] | Spleen level 2 hr post-therapy [1, 3] | BM level 2 hr post-therapy [1, 3] | Blood level 2 hr post-therapy [1, 4] [nM] | Liver level 2 hr post-therapy [1, 4] [nmol/g] | Spleen level 2 hr post-therapy [1, 4] [nmol/g] | BM level 2 hr post-therapy [1, 4] [nmol/g] | Blood level 2 hr post-therapy [1, 5] [nM] | Liver level 2 hr post-therapy [1, 5] [nmol/g] | Spleen level 2 hr post-therapy [1, 5] [nmol/g] | BM level 2 hr post-therapy [1, 5] [nmol/g] | concentration at 2 h [2, 6] [nM] | concentration at 2 h [2, 7] [nM] | BM level 2 hr after final dose [2, 6] [nmol/g] | Liver level 2 hr after final dose [2, 6] [nmol/g] | Spleen level 2 hr after final dose [2, 6] [nmol/g] | BM level 2 hr after final dose [2, 7] [nmol/g] | Liver level 2 hr after final dose [2, 7] [nmol/g] | Spleen level 2 hr after final dose [2, 7] [nmol/g] | other results |
| --- | --- | --- | --- | --- | --- | --- | --- | --- | --- | --- | --- | --- | --- | --- | --- | --- | --- | --- | --- | --- | --- |
| Cc1[nH]c2ccccc2c1CCNCc1ccc(/C=C/C(=O)NO)cc1 [Compound B, N-hydroxy-3-[4-[[[2-(2-methyl-1H-indol-3-yl)-ethyl]-amino]methyl]phenyl]-2E-2-propenamide] | 20 | 0.30 + nmol/g | 2.80 + nmol/g | 6.15 + nmol/g | 30 | 0.32 | 3.02 | 8.43 | 20 | 0.71 | 4.51 | 9.81 | 6 | 35 | 4.398 | 0.33 | 15.317 | 2.704 | 0.264 | 10.045 | Acetylated histone H3 (IHC), surrogate readout for deacetylase inhibition (Acetylated Histone H3): clear increase; Blood level 2 hr post-therapy ([1]; treatment Compound B 4 mg/kg): BLQ; Liver level 2 hr post-therapy ([1]; treatment Compound B 4 mg/kg): 0.18 nmol/g; Spleen level 2 hr post-therapy ([1]; treatment Compound B 4 mg/kg): 1.40 nmol/g; BM level 2 hr post-therapy ([1]; treatment Compound B 4 mg/kg): 3.34 nmol/g; Blood level 2 hr post-therapy ([1]; treatment Compound B 8 mg/kg): BLQ; Liver level 2 hr post-therapy ([1]; treatment Compound B 8 mg/kg): 0.25 nmol/g; Spleen level 2 hr post-therapy ([1]; treatment Compound B 8 mg/kg): 2.07 nmol/g; BM level 2 hr post-therapy ([1]; treatment Compound B 8 mg/kg): 3.17 nmol/g; Blood level 2 hr post-therapy ([1]; treatment Compound B 12 mg/kg): BLQ; Liver level 2 hr post-therapy ([1]; treatment Compound B 12 mg/kg): 0.63 nmol/g; Spleen level 2 hr post-therapy ([1]; treatment Compound B 12 mg/kg): 3.64 nmol/g; BM level 2 hr post-therapy ([1]; treatment Compound B 12 mg/kg): 7.32 nmol/g |
| N#CC[C@H](C1CCCC1)n1cc(-c2ncnc3[nH]ccc23)cn1 [Compound A, (R)-3-(4-(7H-pyrrolo[2,3-d]pyrimidin-4-yl)-1H-pyrazol-1-yl)-3-cyclopentylpropanenitrile] | 2780 | 3.49 + nmol/g | 1.15 + nmol/g | 2.59 + nmol/g | 2230 | 2.91 | 1.02 | 1.92 | 2720 | 3.87 | 1.61 | 2.29 | 4110 | 8180 | 1.469 | 3.568 | 1.575 | 2.223 | 6.537 | 2.566 | Blood level 2 hr post-therapy ([1]; treatment Compound A 60 mg/kg): 1960 nM; Liver level 2 hr post-therapy ([1]; treatment Compound A 60 mg/kg): 4.54 nmol/g; Spleen level 2 hr post-therapy ([1]; treatment Compound A 60 mg/kg): 1.28 nmol/g; BM level 2 hr post-therapy ([1]; treatment Compound A 60 mg/kg): 1.40 + nmol/g |
